pIC50: −log10 of the molar value.
How the values were obtained:
[1] = target: Calcium/calmodulin-dependent protein kinase type II subunit alpha (Homo sapiens, UniProt Q9UQM7); experiment: Selectivity interaction (Kinase panel (Enzymatic assay, microfluidic mobility shift readout, Caliper lifesciences, conc. ATP = Km for each kinase)) EUB0000678a CAMK2A
[2] = target: Cyclin-dependent kinase 2 (Homo sapiens, UniProt P24941); experiment: Selectivity interaction (Kinase panel (Enzymatic assay, microfluidic mobility shift readout, Caliper lifesciences, conc. ATP = Km for each kinase)) EUB0000678a CDK2
[3] = target: T1, Interleukin-1 receptor-associated kinase 4 (Homo sapiens, UniProt Q9NWZ3); experiment: Selectivity interaction (Kinase panel (Enzymatic assay, microfluidic mobility shift readout, Caliper lifesciences, conc. ATP = Km for each kinase)) EUB0000678a IRAK4
T1 sequence (Q9NWZ3 whole entry): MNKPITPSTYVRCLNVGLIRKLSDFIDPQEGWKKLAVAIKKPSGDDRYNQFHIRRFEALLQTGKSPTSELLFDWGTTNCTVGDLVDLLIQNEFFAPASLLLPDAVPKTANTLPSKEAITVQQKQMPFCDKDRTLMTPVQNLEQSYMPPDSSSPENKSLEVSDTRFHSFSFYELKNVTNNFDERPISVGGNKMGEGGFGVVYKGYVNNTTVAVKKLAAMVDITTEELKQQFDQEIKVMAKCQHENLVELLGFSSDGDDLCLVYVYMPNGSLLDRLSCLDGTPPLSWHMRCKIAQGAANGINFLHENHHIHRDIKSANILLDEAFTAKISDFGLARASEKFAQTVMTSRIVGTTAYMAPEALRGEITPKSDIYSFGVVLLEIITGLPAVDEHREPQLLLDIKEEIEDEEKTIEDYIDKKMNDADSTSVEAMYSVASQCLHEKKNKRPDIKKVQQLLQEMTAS

[4] = target: Tyrosine-protein kinase JAK1 (Homo sapiens, UniProt P23458); experiment: Selectivity interaction (Kinase panel (Enzymatic assay, microfluidic mobility shift readout, Caliper lifesciences, conc. ATP = Km for each kinase)) EUB0000678a JAK1
[5] = target: Tyrosine-protein kinase JAK2 (Homo sapiens, UniProt O60674); experiment: Selectivity interaction (Kinase panel (Enzymatic assay, microfluidic mobility shift readout, Caliper lifesciences, conc. ATP = Km for each kinase)) EUB0000678a JAK2
[6] = target: Mitogen-activated protein kinase 14 (Homo sapiens, UniProt Q16539); experiment: Selectivity interaction (Kinase panel (Enzymatic assay, microfluidic mobility shift readout, Caliper lifesciences, conc. ATP = Km for each kinase)) EUB0000678a MAPK14
[7] = target: Hepatocyte growth factor receptor (Homo sapiens, UniProt P08581); experiment: Selectivity interaction (Kinase panel (Enzymatic assay, microfluidic mobility shift readout, Caliper lifesciences, conc. ATP = Km for each kinase)) EUB0000678a MET
[8] = target: Serine/threonine-protein kinase mTOR (Homo sapiens, UniProt P42345); experiment: Selectivity interaction (Kinase panel (KinaseGlo Luminescent Kinase Assay, Promega)) EUB0000678a MTOR
[9] = target: Phosphatidylinositol 3-kinase catalytic subunit type 3 (Homo sapiens, UniProt Q8NEB9); experiment: Selectivity interaction (Kinase panel (KinaseGlo Luminescent Kinase Assay, Promega)) EUB0000678a PIK3C3
[10] = target: cAMP-dependent protein kinase catalytic subunit alpha (Homo sapiens, UniProt P17612); experiment: Selectivity interaction (Kinase panel (Enzymatic assay, microfluidic mobility shift readout, Caliper lifesciences, conc. ATP = Km for each kinase)) EUB0000678a PRKACA
[11] = target: Ribosomal protein S6 kinase alpha-1 (Homo sapiens, UniProt Q15418); experiment: Selectivity interaction (Kinase panel (Enzymatic assay, microfluidic mobility shift readout, Caliper lifesciences, conc. ATP = Km for each kinase)) EUB0000678a RPS6KA1
[12] = target: Tyrosine-protein kinase SYK (Homo sapiens, UniProt P43405); experiment: Selectivity interaction (Kinase panel (Enzymatic assay, microfluidic mobility shift readout, Caliper lifesciences, conc. ATP = Km for each kinase)) EUB0000678a SYK
[13] = target: Non-receptor tyrosine-protein kinase TYK2 (Homo sapiens, UniProt P29597); experiment: Selectivity interaction (Kinase panel (Enzymatic assay, microfluidic mobility shift readout, Caliper lifesciences, conc. ATP = Km for each kinase)) EUB0000678a TYK2
[14] = Selectivity interaction (Kinase panel (cellular selectivity, Bright-Glo proliferation assay in BaF3 Cell line, Promega)) EUB0000678a ALK
[15] = Selectivity interaction (Kinase panel (cellular selectivity, Bright-Glo proliferation assay in BaF3 Cell line, Promega)) EUB0000678a BMX
[16] = Selectivity interaction (Kinase panel (cellular selectivity, Bright-Glo proliferation assay in BaF3 Cell line, Promega)) EUB0000678a KDR
[17] = as above; remark: listed apart in the source
[18] = Selectivity interaction (Kinase panel (cellular selectivity, Bright-Glo proliferation assay in BaF3 Cell line, Promega)) EUB0000678a LYN
[19] = Selectivity interaction (Kinase panel (cellular selectivity, Bright-Glo proliferation assay in BaF3 Cell line, Promega)) EUB0000678a MET
[20] = Selectivity interaction (Kinase panel (cellular selectivity, Bright-Glo proliferation assay in BaF3 Cell line, Promega)) EUB0000678a RET
[21] = Selectivity interaction (Kinase panel (cellular selectivity, Bright-Glo proliferation assay in BaF3 Cell line, Promega)) EUB0000678a SRC
[22] = Selectivity interaction (Kinase panel (cellular selectivity, Bright-Glo proliferation assay in BaF3 Cell line, Promega)) EUB0000678a SYK
[23] = Selectivity interaction (Kinase panel (cellular selectivity, Bright-Glo proliferation assay in BaF3 Cell line, Promega)) EUB0000678a TEK
[24] = Selectivity interaction (Kinase panel (cellular selectivity, Bright-Glo proliferation assay in BaF3 Cell line, Promega)) EUB0000678a FLT1
[25] = Selectivity interaction (Kinase panel (cellular selectivity, Bright-Glo proliferation assay in BaF3 Cell line, Promega)) EUB0000678a FLT4
[26] = Selectivity interaction (Kinase panel (cellular selectivity, Bright-Glo proliferation assay in BaF3 Cell line, Promega)) EUB0000678a INSR
[27] = Selectivity interaction (Kinase panel (cellular selectivity, Bright-Glo proliferation assay in BaF3 Cell line, Promega)) EUB0000678a JAK2
[28] = Selectivity interaction (Kinase panel (cellular selectivity, Bright-Glo proliferation assay in BaF3 Cell line, Promega)) EUB0000678a ROS1
[29] = Selectivity interaction (Kinase panel (cellular selectivity, Bright-Glo proliferation assay in BaF3 Cell line, Promega)) EUB0000678a TYK2
[30] = Selectivity interaction (Kinase panel (cellular selectivity, Bright-Glo proliferation assay in BaF3 Cell line, Promega)) EUB0000678a EPHB1
[31] = Selectivity interaction (Kinase panel (cellular selectivity, Bright-Glo proliferation assay in BaF3 Cell line, Promega)) EUB0000678a NTRK2
[32] = target: Dual specificity protein kinase CLK1 (Homo sapiens, UniProt P49759); experiment: Selectivity interaction (Radioactive assay (Reaction Biology)) EUB0001046a CLK1
[33] = target: Dual specificity protein kinase CLK2 (Homo sapiens, UniProt P49760); experiment: Selectivity interaction (Radioactive assay (Reaction Biology)) EUB0001046a CLK2
[34] = target: Dual specificity protein kinase CLK3 (Homo sapiens, UniProt P49761); experiment: Selectivity interaction (Radioactive assay (Reaction Biology)) EUB0001046a CLK3
[35] = target: Dual specificity protein kinase CLK4 (Homo sapiens, UniProt Q9HAZ1); experiment: Selectivity interaction (Radioactive assay (Reaction Biology)) EUB0001046a CLK4
[36] = target: Dual specificity tyrosine-phosphorylation-regulated kinase 1A (Homo sapiens, UniProt Q13627); experiment: Selectivity interaction (Radioactive assay (Reaction Biology)) EUB0001046a DYRK1A
[37] = target: Dual specificity tyrosine-phosphorylation-regulated kinase 1B (Homo sapiens, UniProt Q9Y463); experiment: Selectivity interaction (Radioactive assay (Reaction Biology)) EUB0001046a DYRK1B
[38] = target: T2, Dual specificity tyrosine-phosphorylation-regulated kinase 2 (Homo sapiens, UniProt Q92630); experiment: Selectivity interaction (Radioactive assay (Reaction Biology)) EUB0001046a DYRK2
T2 sequence (Q92630 whole entry): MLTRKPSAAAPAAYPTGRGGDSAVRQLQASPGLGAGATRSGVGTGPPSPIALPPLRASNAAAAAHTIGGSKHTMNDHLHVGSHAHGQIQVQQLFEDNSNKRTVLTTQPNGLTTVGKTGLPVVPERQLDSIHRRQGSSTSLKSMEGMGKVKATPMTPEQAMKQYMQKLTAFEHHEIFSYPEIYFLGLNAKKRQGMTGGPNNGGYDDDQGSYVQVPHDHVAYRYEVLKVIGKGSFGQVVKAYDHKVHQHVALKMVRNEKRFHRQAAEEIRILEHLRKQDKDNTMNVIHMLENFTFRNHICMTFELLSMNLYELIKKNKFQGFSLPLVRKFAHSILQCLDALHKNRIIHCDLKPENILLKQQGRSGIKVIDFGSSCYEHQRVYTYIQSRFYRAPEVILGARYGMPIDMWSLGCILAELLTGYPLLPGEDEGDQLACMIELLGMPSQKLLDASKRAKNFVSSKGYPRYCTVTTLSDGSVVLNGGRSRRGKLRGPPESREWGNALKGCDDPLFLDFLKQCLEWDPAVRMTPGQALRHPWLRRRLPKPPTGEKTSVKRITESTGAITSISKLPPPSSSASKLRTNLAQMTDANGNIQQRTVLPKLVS

[39] = target: T3, Dual specificity tyrosine-phosphorylation-regulated kinase 3 (Homo sapiens, UniProt O43781); experiment: Selectivity interaction (Radioactive assay (Reaction Biology)) EUB0001046a DYRK3
T3 sequence (O43781 whole entry): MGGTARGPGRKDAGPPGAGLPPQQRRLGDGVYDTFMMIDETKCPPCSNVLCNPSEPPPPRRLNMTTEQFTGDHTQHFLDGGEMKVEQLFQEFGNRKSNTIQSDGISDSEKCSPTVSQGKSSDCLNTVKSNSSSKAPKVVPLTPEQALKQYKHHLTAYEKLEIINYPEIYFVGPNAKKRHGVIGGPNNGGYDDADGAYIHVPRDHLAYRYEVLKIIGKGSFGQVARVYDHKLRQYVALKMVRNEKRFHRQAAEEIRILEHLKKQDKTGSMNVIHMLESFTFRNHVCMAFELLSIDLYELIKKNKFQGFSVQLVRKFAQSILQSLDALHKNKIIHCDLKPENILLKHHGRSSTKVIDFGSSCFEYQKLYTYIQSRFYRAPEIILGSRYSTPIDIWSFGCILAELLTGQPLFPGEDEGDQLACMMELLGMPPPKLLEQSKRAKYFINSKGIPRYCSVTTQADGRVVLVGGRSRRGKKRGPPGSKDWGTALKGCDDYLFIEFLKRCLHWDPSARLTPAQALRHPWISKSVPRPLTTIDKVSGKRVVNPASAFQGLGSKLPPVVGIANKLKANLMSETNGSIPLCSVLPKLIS

[40] = target: T4, SRSF protein kinase 1 (Homo sapiens, UniProt Q96SB4)
[41] = target: T4, SRSF protein kinase 1; remark: listed apart in the source
[42] = target: SRSF protein kinase 2 (Homo sapiens) (UniProt P78362)
Sequence of SRSF protein kinase 2 (Homo sapiens) (P78362 whole entry, looked up): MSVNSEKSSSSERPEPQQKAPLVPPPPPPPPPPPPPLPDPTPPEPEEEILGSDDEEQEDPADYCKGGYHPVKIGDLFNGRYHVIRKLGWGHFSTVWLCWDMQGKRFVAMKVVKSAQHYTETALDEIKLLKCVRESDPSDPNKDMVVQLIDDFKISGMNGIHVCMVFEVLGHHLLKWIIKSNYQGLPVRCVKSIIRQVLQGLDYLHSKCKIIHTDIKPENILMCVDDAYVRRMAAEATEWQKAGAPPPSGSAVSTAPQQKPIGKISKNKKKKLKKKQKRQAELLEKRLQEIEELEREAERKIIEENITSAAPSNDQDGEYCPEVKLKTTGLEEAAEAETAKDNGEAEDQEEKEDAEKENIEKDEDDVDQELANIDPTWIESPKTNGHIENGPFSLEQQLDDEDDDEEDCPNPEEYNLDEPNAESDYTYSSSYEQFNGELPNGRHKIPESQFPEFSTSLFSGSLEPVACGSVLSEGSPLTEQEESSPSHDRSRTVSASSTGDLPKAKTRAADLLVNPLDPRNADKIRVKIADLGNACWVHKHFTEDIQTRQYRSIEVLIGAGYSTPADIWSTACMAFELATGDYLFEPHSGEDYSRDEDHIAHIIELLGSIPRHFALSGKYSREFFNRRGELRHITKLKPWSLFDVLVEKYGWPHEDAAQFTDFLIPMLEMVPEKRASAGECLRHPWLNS

T4 sequence (Q96SB4 whole entry): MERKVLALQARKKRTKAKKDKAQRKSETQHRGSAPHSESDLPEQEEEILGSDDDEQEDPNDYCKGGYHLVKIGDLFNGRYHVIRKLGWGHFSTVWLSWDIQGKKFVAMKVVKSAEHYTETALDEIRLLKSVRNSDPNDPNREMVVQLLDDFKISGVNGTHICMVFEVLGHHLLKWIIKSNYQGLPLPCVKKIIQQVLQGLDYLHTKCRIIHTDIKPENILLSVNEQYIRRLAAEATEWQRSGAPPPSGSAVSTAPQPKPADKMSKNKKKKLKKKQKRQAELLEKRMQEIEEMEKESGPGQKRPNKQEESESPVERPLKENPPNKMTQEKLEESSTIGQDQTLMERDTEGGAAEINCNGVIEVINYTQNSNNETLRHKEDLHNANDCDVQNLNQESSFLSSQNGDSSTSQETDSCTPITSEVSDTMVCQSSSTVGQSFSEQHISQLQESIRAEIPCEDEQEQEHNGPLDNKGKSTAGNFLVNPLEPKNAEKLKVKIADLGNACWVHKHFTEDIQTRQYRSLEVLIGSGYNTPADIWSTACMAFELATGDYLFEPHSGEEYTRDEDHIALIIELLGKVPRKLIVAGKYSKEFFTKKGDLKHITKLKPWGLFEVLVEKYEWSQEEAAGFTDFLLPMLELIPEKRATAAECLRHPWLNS
Sequence of Dual specificity tyrosine-phosphorylation-regulated kinase 1B (Q9Y463 whole entry): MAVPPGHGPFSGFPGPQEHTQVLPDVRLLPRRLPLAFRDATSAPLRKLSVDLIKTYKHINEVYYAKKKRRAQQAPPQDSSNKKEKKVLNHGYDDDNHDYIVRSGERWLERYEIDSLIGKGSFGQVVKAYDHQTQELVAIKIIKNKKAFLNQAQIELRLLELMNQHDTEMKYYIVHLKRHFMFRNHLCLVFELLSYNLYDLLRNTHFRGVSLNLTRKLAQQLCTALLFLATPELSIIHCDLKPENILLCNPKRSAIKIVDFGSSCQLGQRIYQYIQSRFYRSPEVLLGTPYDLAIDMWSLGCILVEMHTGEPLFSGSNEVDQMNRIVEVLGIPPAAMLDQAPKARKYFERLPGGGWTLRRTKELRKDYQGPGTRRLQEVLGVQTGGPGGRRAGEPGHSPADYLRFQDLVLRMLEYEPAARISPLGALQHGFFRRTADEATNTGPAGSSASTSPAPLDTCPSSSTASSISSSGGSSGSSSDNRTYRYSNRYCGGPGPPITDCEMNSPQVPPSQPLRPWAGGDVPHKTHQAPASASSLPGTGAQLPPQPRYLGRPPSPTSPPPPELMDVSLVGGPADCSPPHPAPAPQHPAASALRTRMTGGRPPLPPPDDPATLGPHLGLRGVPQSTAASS
Sequence of Hepatocyte growth factor receptor (P08581 whole entry): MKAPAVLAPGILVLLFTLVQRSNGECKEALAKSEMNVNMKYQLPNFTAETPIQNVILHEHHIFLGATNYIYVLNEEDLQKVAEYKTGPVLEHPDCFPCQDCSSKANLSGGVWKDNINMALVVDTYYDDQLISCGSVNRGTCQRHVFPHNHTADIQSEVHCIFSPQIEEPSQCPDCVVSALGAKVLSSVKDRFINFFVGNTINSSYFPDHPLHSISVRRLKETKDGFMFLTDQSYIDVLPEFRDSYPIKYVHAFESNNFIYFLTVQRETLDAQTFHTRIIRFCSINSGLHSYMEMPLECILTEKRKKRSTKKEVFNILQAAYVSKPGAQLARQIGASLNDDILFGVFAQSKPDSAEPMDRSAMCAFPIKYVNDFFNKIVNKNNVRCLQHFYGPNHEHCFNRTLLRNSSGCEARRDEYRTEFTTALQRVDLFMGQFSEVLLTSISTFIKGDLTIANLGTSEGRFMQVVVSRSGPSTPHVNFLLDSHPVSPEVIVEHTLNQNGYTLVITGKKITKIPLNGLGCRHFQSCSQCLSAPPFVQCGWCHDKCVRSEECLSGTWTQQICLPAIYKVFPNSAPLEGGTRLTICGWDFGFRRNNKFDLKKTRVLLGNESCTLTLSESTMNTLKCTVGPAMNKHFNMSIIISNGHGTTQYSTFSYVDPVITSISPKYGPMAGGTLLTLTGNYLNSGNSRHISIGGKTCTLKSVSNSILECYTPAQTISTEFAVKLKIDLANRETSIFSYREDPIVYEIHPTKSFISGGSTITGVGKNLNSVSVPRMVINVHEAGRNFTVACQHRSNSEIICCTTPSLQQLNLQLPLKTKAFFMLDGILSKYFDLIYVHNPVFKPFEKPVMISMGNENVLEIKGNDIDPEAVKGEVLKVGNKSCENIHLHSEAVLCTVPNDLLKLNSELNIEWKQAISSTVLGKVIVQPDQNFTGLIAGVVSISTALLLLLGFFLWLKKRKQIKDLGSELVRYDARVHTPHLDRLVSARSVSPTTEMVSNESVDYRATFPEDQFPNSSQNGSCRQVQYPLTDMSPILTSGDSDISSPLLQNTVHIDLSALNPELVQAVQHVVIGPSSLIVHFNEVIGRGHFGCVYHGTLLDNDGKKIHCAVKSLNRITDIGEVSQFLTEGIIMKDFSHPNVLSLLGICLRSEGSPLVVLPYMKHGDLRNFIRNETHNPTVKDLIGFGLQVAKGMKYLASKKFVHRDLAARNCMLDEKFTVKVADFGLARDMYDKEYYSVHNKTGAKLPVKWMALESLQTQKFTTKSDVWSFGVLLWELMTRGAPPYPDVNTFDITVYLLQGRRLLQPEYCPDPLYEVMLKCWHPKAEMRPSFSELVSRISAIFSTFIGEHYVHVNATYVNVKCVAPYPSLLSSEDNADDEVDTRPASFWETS
Sequence of Calcium/calmodulin-dependent protein kinase type II subunit alpha (Q9UQM7 whole entry): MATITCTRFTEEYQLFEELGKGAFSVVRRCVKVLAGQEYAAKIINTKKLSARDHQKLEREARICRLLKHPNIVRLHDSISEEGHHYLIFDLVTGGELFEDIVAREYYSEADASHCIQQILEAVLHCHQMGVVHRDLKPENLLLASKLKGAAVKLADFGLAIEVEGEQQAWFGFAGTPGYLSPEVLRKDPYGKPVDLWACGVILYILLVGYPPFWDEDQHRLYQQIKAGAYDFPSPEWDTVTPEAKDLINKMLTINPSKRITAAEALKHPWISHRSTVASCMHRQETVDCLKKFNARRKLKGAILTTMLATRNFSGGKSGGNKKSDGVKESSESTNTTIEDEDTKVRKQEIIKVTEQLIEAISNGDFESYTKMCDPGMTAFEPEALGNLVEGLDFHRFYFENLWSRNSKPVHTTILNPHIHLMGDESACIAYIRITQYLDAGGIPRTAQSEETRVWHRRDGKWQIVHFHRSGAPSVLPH
Sequence of Dual specificity protein kinase CLK4 (Q9HAZ1 whole entry): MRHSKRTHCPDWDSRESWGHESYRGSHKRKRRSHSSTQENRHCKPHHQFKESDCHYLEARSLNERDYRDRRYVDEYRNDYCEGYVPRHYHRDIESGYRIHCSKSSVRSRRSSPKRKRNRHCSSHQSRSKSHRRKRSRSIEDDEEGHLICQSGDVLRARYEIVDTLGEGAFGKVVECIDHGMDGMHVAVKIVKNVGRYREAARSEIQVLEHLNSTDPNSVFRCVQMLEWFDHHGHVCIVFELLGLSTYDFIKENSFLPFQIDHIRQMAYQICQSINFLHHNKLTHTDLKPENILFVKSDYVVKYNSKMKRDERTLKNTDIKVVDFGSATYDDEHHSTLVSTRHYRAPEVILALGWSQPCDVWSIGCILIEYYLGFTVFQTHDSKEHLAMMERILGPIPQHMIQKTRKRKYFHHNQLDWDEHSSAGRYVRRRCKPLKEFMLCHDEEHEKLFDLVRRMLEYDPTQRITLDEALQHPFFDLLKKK
Sequence of Dual specificity protein kinase CLK1 (P49759 whole entry): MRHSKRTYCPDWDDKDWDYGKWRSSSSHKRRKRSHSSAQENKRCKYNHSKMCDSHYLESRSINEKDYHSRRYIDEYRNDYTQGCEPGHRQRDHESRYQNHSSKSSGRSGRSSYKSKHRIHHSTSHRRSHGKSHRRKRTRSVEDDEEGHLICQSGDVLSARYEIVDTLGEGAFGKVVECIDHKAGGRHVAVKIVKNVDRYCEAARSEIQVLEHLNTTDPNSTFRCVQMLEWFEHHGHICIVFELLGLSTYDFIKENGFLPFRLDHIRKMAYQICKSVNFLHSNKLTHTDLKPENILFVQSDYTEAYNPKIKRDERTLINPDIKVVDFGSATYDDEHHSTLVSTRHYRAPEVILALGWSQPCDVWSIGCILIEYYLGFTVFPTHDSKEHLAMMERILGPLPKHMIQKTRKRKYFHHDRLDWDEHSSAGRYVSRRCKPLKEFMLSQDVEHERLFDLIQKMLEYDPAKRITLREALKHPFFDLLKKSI

CCN1CCN(c2ccc(Nc3cc(N(C)C(=O)Nc4c(Cl)c(OC)cc(OC)c4Cl)ncn3)cc2)CC1 [INFIGRATINIB]
pIC50 [1]: < 5.00 | pIC50 [2]: < 5.00 | pIC50 [3]: < 5.00 | pIC50 [4]: < 5.00 | pIC50 [5]: < 5.00 | pIC50 [6]: < 5.00 | pIC50 [7]: < 5.00 | pIC50 [8]: < 5.05 | pIC50 [9]: < 5.05 | pIC50 [10]: < 5.00 | pIC50 [11]: < 5.00 | pIC50 [12]: < 5.00 | pIC50 [13]: < 5.00 | pIC50 [14]: 5.51 | pIC50 [15]: 5.47 | pIC50 [16]: 5.84 | pIC50 [17]: 6.03 | pIC50 [18]: 5.52 | pIC50 [19]: 5.52 | pIC50 [20]: 5.47 | pIC50 [21]: 5.53 | pIC50 [22]: 5.27 | pIC50 [23]: 5.69 | pIC50 [24]: 5.82 | pIC50 [25]: 5.68 | pIC50 [26]: 5.47 | pIC50 [27]: 5.54 | pIC50 [28]: 5.49 | pIC50 [29]: 5.48 | pIC50 [30]: 5.52 | pIC50 [31]: 5.50

CN(c1ncccc1CNc1ccnc(-c2cc3cc(Cl)ccc3[nH]2)n1)S(C)(=O)=O
pIC50 [32]: < 5.00 | pIC50 [33]: < 5.00 | pIC50 [34]: < 5.00 | pIC50 [35]: < 5.00 | pIC50 [36]: < 5.00 | pIC50 [37]: < 5.00 | pIC50 [38]: < 5.00 | pIC50 [39]: < 5.00 | pIC50 [40]: < 4.30 | dTM [41]: 0.5 K | dTM [42]: 0.3 K
